According to US9624215B2, “Amine derivative or salt thereof” (TOYAMA CHEMICAL CO., LTD., priority 2012, dated 2017):

Test system: normal human neonatal foreskin epidermal keratinocytes (NHEK-F)
Assay: Cell proliferation inhibition test
Format: cell-based
Conditions: Keratinocyte, 72 h, NHEK-F cells, three days incubation, ATPlite or CellTiterGlo, read-out: IC50 (concentration of the compound at which the cell count is reduced by 50%)
Procedure: 2×10^3 normal human neonatal foreskin epidermal keratinocytes (NHEK-F) (Kurabo, KK-4009) were suspended in 100 μL of Humedia-EG2 (Kurabo, KK-2150S) medium, plated in a 96-well plate and incubated overnight. The test compound was added on the following day and the cells were incubated for further three days. The cell count was determined using ATPlite (PerkinElmer, 6016739) or CellTiterGlo (Promega, G7573).
The inhibition rate was calculated from the following formula to determine the concentration of the compound at which the cell count is reduced by 50% (IC50). Inhibition rate (%)=100−(cell count in the presence of test compound/cell count in the absence of test compound)×100

Row | SMILES | IC50
1 | CCOCCc1cc(Nc2ncc(C3CC3)cc2C(=O)O)cc2ccn(C)c12 [Example 605, 5-cyclopropyl-2-((7-(2-ethoxyethyl)-1-methyl-1H-indol-5-yl)amino)nicotinic acid] | 10 to 100 nM
2 | O=C(O)c1cc(Cl)ccc1Nc1ccc2c(ccn2Cc2cccnc2)c1 [Example 349, 5-chloro-2-((1-(pyridin-3-ylmethyl)-1H-indol-5-yl)amino)benzoic acid] | 100 to 1000 nM
3 | O=C(O)c1cc(C2CC2)cnc1Nc1cccc2c1ccn2CC1CCCCC1 [Example 429, 2-((1-(cyclohexylmethyl)-1H-indol-4-yl)amino)-5-cyclopropylnicotinic acid] | ≤ 10 nM
4 | COCCCc1cc(Nc2ncc(C3CC3)cc2C(=O)O)cc2ccn(CC(C)C)c12 [Example 608, 5-cyclopropyl-2-((7-(3-methoxypropyl)-1-(2-methylpropyl)-1H-indol-5-yl)amino)nicotinic acid] | ≤ 10 nM
5 | O=C(O)c1cc(C2CC2)cnc1Nc1ccc2c(ccn2C(=O)c2ccccc2)c1 [Example 575, 2-((1-benzoyl-1H-indol-5-yl)amino)-5-cyclopropylnicotinic acid] | 10 to 100 nM
6 | COc1ccc(Cn2ccc3cc(Nc4ncc(C5CC5)cc4C(=O)O)ccc32)cc1 [Example 623, 5-cyclopropyl-2-((1-(4-methoxybenzyl)-1H-indol-5-yl)amino)nicotinic acid] | 10 to 100 nM
7 | Cc1cccc(-c2cc(Nc3ncc(C4CC4)cc3C(=O)O)cc3ccn(C)c23)c1 [Example 477, 5-cyclopropyl-2-((1-methyl-7-(m-tolyl)-1H-indol-5-yl)amino)nicotinic acid] | ≤ 10 nM
8 | O=C(O)c1cc(C2CC2)cnc1Nc1ccc2c(c1)OCC(=O)N2c1ccccc1 [Example 399, 5-cyclopropyl-2-((3-oxo-4-phenyl-3,4-dihydro-2H-benzo[b][1,4]oxazin-7-yl)amino)nicotinic acid] | 100 to 1000 nM
9 | O=C(O)c1cc(C2CC2)cnc1Nc1cccc2ccccc12 [Example 371, 5-cyclopropyl-2-(naphthalen-1-ylamino)nicotinic acid] | 100 to 1000 nM
10 | CC(C)Cn1ccc2c(Nc3ncc(C4CC4)cc3C(=O)O)cccc21 [Example 431, 5-cyclopropyl-2-((1-isobutyl-1H-indol-4-yl)amino)nicotinic acid] | ≤ 10 nM
11 | COc1ccc(Cn2ccc3cc(Nc4ccc(Cl)cc4C(=O)O)ccc32)cc1 [Example 347, 5-chloro-2-((1-(4-methoxybenzyl)-1H-indol-5-yl)amino)benzoic acid] | 10 to 100 nM
12 | O=C(O)c1cc(C2CC2)cnc1Nc1ccc2cc(-c3ccccc3)ccc2c1 [Example 218, 5-cyclopropyl-2-((6-phenylnaphthalen-2-yl)amino)nicotinic acid] | 10 to 100 nM
13 | O=C(O)c1cc(C2CC2)cnc1Nc1c(F)cc2c(ccn2Cc2ccccc2)c1F [Example 554, 2-((1-benzyl-4,6-difluoro-1H-indol-5-yl)amino)-5-cyclopropylnicotinic acid] | ≤ 10 nM
14 | O=C(O)c1cc(Cl)ccc1Nc1ccc2c(ccn2Cc2cccc(OCc3ccc4ccccc4n3)c2)c1 [Example 249, 5-chloro-2-((1-(3-(quinolin-2-ylmethoxy)benzyl)-1H-indol-5-yl)amino)benzoic acid] | ≤ 10 nM
15 | CCn1ccc2cc(Nc3ncc(C4CC4)cc3C(=O)O)ccc21 [Example 121, 5-cyclopropyl-2-((1-ethyl-1H-indol-5-yl)amino)nicotinic acid] | 100 to 1000 nM
16 | Cc1cnc(Nc2ccc3c(ccn3Cc3ccccc3)c2)c(C(=O)O)c1 [Example 125, 2-((1-benzyl-1H-indol-5-yl)amino)-5-methylnicotinic acid] | 10 to 100 nM
17 | CSc1nccc(-n2ccc3cc(Nc4ccc(Cl)cc4C(=O)O)ccc32)n1 [Example 319, 5-chloro-2-((1-(2-(methylthio)pyrimidin-4-yl)-1H-indol-5-yl)amino)benzoic acid] | 10 to 100 nM
18 | O=C(O)c1cc(C2CC2)cnc1Nc1ccc2c(ccn2CC2CCCCO2)c1 (stereo not drawn) [Example 414, 5-cyclopropyl-2-((1-((tetrahydro-2H-pyran-2-yl)methyl)-1H-indol-5-yl)amino)nicotinic acid] | 10 to 100 nM
19 | O=C(O)c1cc(C2CC2)cnc1Nc1cnc2c(ccn2CC2CCCCC2)c1 [Example 549] | ≤ 10 nM
20 | O=C(O)c1cc(C2CC2)cnc1Nc1ccc2c(ccn2Cc2cc(F)c(F)cc2F)c1 [Example 643, 5-cyclopropyl-2-((1-(2,4,5-trifluorobenzyl)-1H-indol-5-yl)amino)nicotinic acid] | ≤ 10 nM
21 | N#Cc1ccc(Cn2ccc3cc(Nc4ncc(C5CC5)cc4C(=O)O)ccc32)cc1 [Example 454, 2-((1-(4-cyanobenzyl)-1H-indol-5-yl)amino)-5-cyclopropylnicotinic acid] | 10 to 100 nM

Row | SMILES | IC50
22 | COCCOc1cccc(Cn2ccc3cc(Nc4ncc(C5CC5)cc4C(=O)O)ccc32)c1 [Example 506, 5-cyclopropyl-2-((1-(3-(2-methoxyethoxyl)benzyl)-1H-indol-5-yl)amino)nicotinic acid] | ≤ 10 nM
23 | O=C(O)c1cc(C2CC2)cnc1Nc1ccc2c(ccn2Cc2ccccc2C(F)(F)F)c1 [Example 449, 5-cyclopropyl-2-((1-(2-(trifluoromethyl)benzyl)-1H-indol-5-yl)amino)nicotinic acid] | 10 to 100 nM
24 | O=C(O)c1cc(C2CC2)ccc1Nc1ccc2c(ccn2C(=O)c2ccc(Cl)cc2)c1 [Example 204, 2-((1-(4-chlorobenzoyl)-1H-indol-5-yl)amino)-5-cyclopropylbenzoic acid] | 10 to 100 nM
25 | Cn1ccc2cc(Nc3ncc(C4CC4)cc3C(=O)O)cc(C3=CCOCC3)c21 [Example 471, 5-cyclopropyl-2-((7-(3,6-dihydro-2H-pyran-4-yl)-1-methyl-1H-indol-5-yl)amino)nicotinic acid] | ≤ 10 nM
26 | O=C(O)c1cc(Cl)ccc1Nc1ccc2c(c1)c(Cc1ccccc1)cn2Cc1ccccc1 [Example 88, 5-chloro-2-((1,3-dibenzyl-1H-indol-5-yl)amino)benzoic acid] | 10 to 100 nM
27 | O=C(O)c1cc(Cl)ccc1Nc1ccc2c(ccn2-c2ccncc2)c1 [Example 315, 5-chloro-2-((1-(pyridin-4-yl)-1H-indol-5-yl)amino)benzoic acid] | 10 to 100 nM
28 | Cn1ccc2cc(Nc3ncc(C4CC4)cc3C(=O)O)cc(-c3ccc(OC(F)(F)F)cc3)c21 [Example 493, 5-cyclopropyl-2-((1-methyl-7-(4-(trifluoromethoxy)phenyl)-1H-indol-5-yl)amino)nicotinic acid] | ≤ 10 nM
29 | O=C(O)c1cc(C2CC2)cnc1Nc1ccc2c(ccn2Cc2cccc(OC(F)(F)F)c2)c1 [Example 496, 5-cyclopropyl-2-((1-(3-(trifluoromethoxy)benzyl)-1H-indol-5-yl)amino)nicotinic acid] | 10 to 100 nM
30 | O=C(O)c1cc(Cl)cnc1Nc1ccc2c(ccn2Cc2cccc(F)c2)c1 [Example 645, 5-chloro-2-((1-(3-fluorobenzyl)-1H-indol-5-yl)amino)nicotinic acid] | 10 to 100 nM
31 | COc1ccccc1-c1cn(C)c2ccc(Nc3ncc(C4CC4)cc3C(=O)O)cc12 [Example 581, 5-cyclopropyl-2-((3-(2-methoxyphenyl)-1-methyl-1H-indol-5-yl)amino)nicotinic acid] | 10 to 100 nM
32 | O=C(O)c1cc(Cl)ccc1Nc1ccc2c(ccn2CC2CCCCC2)c1 [Example 257, 5-chloro-2-((1-(cyclohexylmethyl)-1H-indol-5-yl)amino)benzoic acid] | ≤ 10 nM
33 | O=C(O)c1cc(Cl)ccc1Nc1ccc2c(ccn2-c2cnccn2)c1 [Example 313, 5-chloro-2-((1-(pyrazin-2-yl)-1H-indol-5-yl)amino)benzoic acid] | 100 to 1000 nM
34 | O=C(O)c1cc(Cl)ccc1Nc1cccc2c1ccn2Cc1ccccc1 [Example 6, 2-((1-benzyl-1H-indol-4-yl)amino)-5-chlorobenzoic acid] | 10 to 100 nM
35 | O=C(O)c1cc(Br)cnc1Nc1ccc2c(ccn2Cc2cccc(F)c2)c1 [Example 627, 5-bromo-2-((1-(3-fluorobenzyl)-1H-indol-5-yl)amino)nicotinic acid] | 10 to 100 nM
36 | COc1cccc(-c2cc(Nc3ncc(C4CC4)cc3C(=O)O)cc3ccn(C)c23)c1 [Example 486, 5-cyclopropyl-2-((7-(3-methoxyphenyl)-1-methyl-1H-indol-5-yl)amino)nicotinic acid] | ≤ 10 nM
37 | O=C(O)c1cc(C2CC2)cnc1Nc1ccc2c(c1)CCCN2Cc1ccccc1 [Example 183, 2-((1-benzyl-1,2,3,4-tetrahydroquinolin-6-yl)amino)-5-cyclopropylnicotinic acid] | 10 to 100 nM
38 | Cn1ccc2cc(Nc3ncc(C4CC4)cc3C(=O)O)cc(-c3ccccc3-c3ccccc3)c21 [Example 463, 2-((7-([1,1′-biphenyl]-2-yl)-1-methyl-1H-indol-5-yl)amino)-5-cyclopropylnicotinic acid] | ≤ 10 nM
39 | O=C(O)c1cc(-c2ccccc2)ccc1Nc1ccc2c(ccn2Cc2ccccc2)c1 [Example 359, 4-((1-Benzyl-1H-indol-5-yl)amino)-[1,1′-biphenyl]-3-carboxylic acid] | 10 to 100 nM
40 | O=C(O)c1cc(C2CC2)cnc1Nc1ccc2c(ccn2-c2cccc(F)c2)c1 [Example 231, 5-cyclopropyl-2-((1-(3-fluorophenyl)-1H-indol-5-yl)amino)nicotinic acid] | ≤ 10 nM
41 | O=C(O)c1cc(C2CC2)cnc1Nc1ccc2c(ccn2Cc2ccc(Cl)cc2)c1 [Example 461, 2-((1-(4-Chlorobenzyl)-1H-indol-5-yl)amino)-5-cyclopropylnicotinic acid] | ≤ 10 nM
42 | O=C(O)c1cc(C2CC2)cnc1Nc1ccc2c(c1)CCCN2c1ccccc1 [Example 181, 5-cyclopropyl-2-((1-phenyl-1,2,3,4-tetrahydroquinolin-6-yl)amino)nicotinic acid] | ≤ 10 nM
